Earlier results in patent US20190053509A1, “NITROUS OXIDE MIXTURES AND METHODS OF USE” (Korvata Inc., priority 2015, published 2019).
Like-named read-outs stand apart in the source and are kept apart here.

Experiments:
[1] = relative to nitrogen standardized to 1.0; from J Applied Physiology 1994; 76(1): 439-444
[2] = 101.3 kPa (1 atm); for Bunsen solubility coefficient in olive oil: olive oil at 22° C.; for Bunsen solubility coefficient in water: water at 0° C.

SMILES | RNP (Relative Narcotic Potency) [1] | Bunsen solubility coefficient in olive oil [2] [L gas/L] | Bunsen solubility coefficient in water [2] [L gas/L] | lipid solubility (25° C. and 36 psi) [mg/mL] | lipid solubility (25° C. and 181 psi) [mg/mL]
[Ar] [Ar, argon] | 2.3 | 0.15 | 0.0421 | – | –
[N-]=[N+]=O [Example N2O, nitrous oxide] | 39 | 3.6 | 1.0710 | 7.08 | 23.14
O=O [Example O2, oxygen] | – | 0.11 | 0.0387 | – | –
[He] [He, helium] | 0.045 | 0.015 | 0.0078 | – | –
[Kr] [Kr, krypton] | 7.1 | 0.44 | 0.0856 | – | –
[Ne] [Ne, neon] | 0.3 | 0.052 | 0.0101 | – | –
[Xe] [Xe, xenon] | – | 1.9 | 0.1920 | – | –
